# Results taken from PMC11621054, “Biological evaluation of semi-synthetic isoindolinone isomers produced by Stachybotrys chartarum” (Frontiers in Fungal Biology, 2024).
# What was measured:
# human α-thrombin = tested on: human α-thrombin; parameters: method as in Steinert et al., 2022; conditions: 500 nM; ref Steinert et al., 2022; cited from earlier work
# human Factor Xa = biological target: T1, human Factor Xa (Homo sapiens, UniProt P00742); parameters: method as in Steinert et al., 2022; conditions: 500 nM; ref Steinert et al., 2022; cited from earlier work
# T1 construct: human Factor Xa, HFXA, > 95% purity; Molecular Innovations; purchased Molecular Innovations HFXA
# [1] = Hepatic phase I metabolism (oxidation), human microsomes; type: in vitro ADME; conditions: 10 µM, 90 min
# Experimental: (§1) Liver microsomes and cytosol were obtained for two organisms, horse and human. Fresh horse liver was purchased locally cut to pieces of ca. 50 g each and frozen in liquid nitrogen. Until further usage, the liver was stored at -80 °C. The preparation of microsomes and cytosol was carried out according to Balk et al. ([Balk et al., 1984]), and the protein content was determined by Bradford assay with bovine serum albumin as a reference ([Bradford, 1976]). Human liver microsomes and cytosol (150 Donors Ultrapool™) were provided by Corning, Inc. (Corning, New York, NY, USA). Besides assay-specific positive controls, all assays included stability controls, moreover, matrix influences were considered. For oxidation, additional non-oxidation controls were included. Each experiment was performed in duplicate. All stated concentrations are final concentration values. The test compounds (acetoxystachybotrylactam acetate-tryptophan 2a, 2b and acetoxystachybotrylactam acetate-tryptamine 3a, 3b ) were extended by the most biologically active derivative previously characterized by our group (acetoxystachybotrylactam acetate-agmatine 4 ) ([Steinert et al., 2022]).
# (§2) The phase I metabolism was investigated utilizing a NADPH- regenerating system. […] After centrifugation (4 °C, 10 min, 15,000 rpm), 150 µL of supernatant was diluted with 850 µL H2O, which was subsequently analyzed by HPLC-qToF-HRMS. […]
# [2] = Hepatic phase I metabolism (oxidation), horse microsomes; type: in vitro ADME; conditions: 10 µM, 90 min
# Experimental: as §1, §2
# [3] = Hepatic phase II sulfation, human cytosol; type: in vitro ADME; conditions: 50 µM, 4 h
# Experimental: as §1
# (§3) For phase II metabolism, potential sulfation and glucuronidation were investigated. For sulfation, the reaction mixture was pipetted as follows: first, ultrapure water was added and mixed with a 1 mM DTT solution (contains DTT, 100 mM phosphate buffer, 100 µM ascorbic acid, pH 7.4). Then, PAPS (100 µM) and the substance of interest (50 µM) were added, which was concluded by the addition of horse/human cytosol (10 mg protein/mL). For glucuronidation, first, ultrapure H2O, phosphate buffer (50 mM) and MgCl2 (5 mM) were added to the reaction vessel, followed by addition of the investigated substance (50 µM), UDPGA (5 µM), and horse/human microsomes (1 mg protein/mL), respectively. For both assays, the final volume was 100 µL which was subsequently incubated for 4 h at 37 °C in darkness. […] After centrifugation (4 °C, 10 min, 15,000 rpm), 150 µL of supernatant was diluted with 850 µL H2O, which was subsequently analyzed by HPLC-qToF-HRMS. […]
# [4] = Hepatic phase II sulfation, horse cytosol; type: in vitro ADME; conditions: 50 µM, 4 h
# Experimental: as §1, §3
# [5] = Hepatic phase II glucuronidation, human microsomes; type: in vitro ADME; conditions: human microsomes, 50 µM, 4 h
# Experimental: as §1
# For phase II metabolism, potential sulfation and glucuronidation were investigated. For sulfation, the reaction mixture was pipetted as follows: first, ultrapure water was added and mixed with a 1 mM DTT solution (contains DTT, 100 mM phosphate buffer, 100 µM ascorbic acid, pH 7.4). Then, PAPS (100 µM) and the substance of interest (50 µM) were added, which was concluded by the addition of horse/human cytosol (10 mg protein/mL). For glucuronidation, first, ultrapure H2O, phosphate buffer (50 mM) and MgCl2 (5 mM) were added to the reaction vessel, followed by addition of the investigated substance (50 µM), UDPGA (5 µM), and horse/human microsomes (1 mg protein/mL), respectively. For both assays, the final volume was 100 µL which was subsequently incubated for 4 h at 37 °C in darkness. Quenching and protein precipitation was achieved by adding 200 µL of cold MeCN (-20 °C). After centrifugation (4 °C, 10 min, 15,000 rpm), 150 µL of supernatant was diluted with 850 µL H2O, which was subsequently analyzed by HPLC-qToF-HRMS. For both experiments, 50 µM 7-hydroxycumarin served as positive control.
# Chromatographic separation and mass spectrometric detection were identical to the parameters already described for the fragmentation experiments for phase I and phase II glucuronidation metabolism. For sulfation, the HPLC-qToF-HRMS was operated in negative ionization mode at -4.5 kV and otherwise identical source parameters as previously described. […]
# [6] = tested on: Human liver carcinoma cells (HepG2, HB-8065); parameters: method as in Steinert et al., 2022; conditions: HepG2; ref Steinert et al., 2022; cited from earlier work
# [7] = tested on: lung adenocarcinoma cells (A549, CCL-185); parameters: method as in Steinert et al., 2022; conditions: ref Steinert et al., 2022; cited from earlier work
# plasma coagulation [8] = tested on: plasma coagulation; parameters: method as in Steinert et al., 2022; conditions: ref Steinert et al., 2022; cited from earlier work
# plasma coagulation [9] = tested on: plasma coagulation; parameters: method as in Steinert et al., 2022; conditions: ref Steinert et al., 2022; cited from earlier work; remark: listed apart in the source
# T1 sequence (P00742 235-488 limits assumed): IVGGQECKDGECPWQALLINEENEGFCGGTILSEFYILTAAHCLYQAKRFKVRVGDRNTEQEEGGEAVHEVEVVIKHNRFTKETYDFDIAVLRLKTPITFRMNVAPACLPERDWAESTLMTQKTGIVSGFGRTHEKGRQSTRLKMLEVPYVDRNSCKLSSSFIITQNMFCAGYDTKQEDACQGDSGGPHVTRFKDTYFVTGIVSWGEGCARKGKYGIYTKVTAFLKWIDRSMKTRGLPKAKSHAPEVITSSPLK
# T1 sequence (P00742 41-179 partner limits assumed): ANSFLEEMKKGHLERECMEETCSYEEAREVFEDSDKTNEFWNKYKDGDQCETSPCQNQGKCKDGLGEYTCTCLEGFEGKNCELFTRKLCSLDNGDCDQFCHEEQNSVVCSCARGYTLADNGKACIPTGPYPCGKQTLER
molecule,measurement,setting,value
"[H]/N=C(/N)c1ccc(NCc2nc3cc(C(=O)N(CCC(=O)O)c4ccccn4)ccc3n2C)cc1 [Dabigatran, dabigatran]",inhibition of thrombin (positive control),human α-thrombin,98.3 ± 0.1%
O=C(NC[C@H]1CN(c2ccc(N3CCOCC3=O)cc2)C(=O)O1)c1ccc(Cl)s1 [rivaroxaban],inhibition of FXa (positive control),human Factor Xa,99.8 ± 0.3%
acetoxystachybotrylactam acetate-agmatine [Compound 4],"phase I conversion, in words",[1],fastest among the reaction products to be metabolized
same,"phase I conversion, in words",[2],fastest among the reaction products to be metabolized
same,"metabolism under sulfation conditions, in words",[3],did undergo metabolism
same,"metabolism under sulfation conditions, in words",[4],did undergo metabolism
same,"glucuronidation: conversion and formation of glucuronides, in words",[5],best conversion
same,"cytotoxicity, in words",[6],no cytotoxicity
same,"cytotoxicity, in words",[7],no cytotoxicity
same,"plasma coagulation, activated partial thromboplastin time",plasma coagulation [8],prolonged plasma coagulation
same,"plasma coagulation, prothrombin time",plasma coagulation [9],prolonged plasma coagulation
